Like-named read-outs stand apart in the source and are kept apart here.
Legend:
hGSTA4-4 = biological target: T1, hGSTA4-4 (Homo sapiens, UniProt O15217); experiment: hGSTA4-4 enzyme inhibition assay (CDNB-GSH conjugation, 340 nm); conditions: for Enzyme Inhibition (%): hGSTA4-4, compound at 100 μM, mean of three experiments, 100 µM; for inhibition at 100 µM: read-out: Enzyme Inhibition (%), hGSTA4-4, compound at 100 μM, mean of three experiments
T1 sequence (O15217 1-222): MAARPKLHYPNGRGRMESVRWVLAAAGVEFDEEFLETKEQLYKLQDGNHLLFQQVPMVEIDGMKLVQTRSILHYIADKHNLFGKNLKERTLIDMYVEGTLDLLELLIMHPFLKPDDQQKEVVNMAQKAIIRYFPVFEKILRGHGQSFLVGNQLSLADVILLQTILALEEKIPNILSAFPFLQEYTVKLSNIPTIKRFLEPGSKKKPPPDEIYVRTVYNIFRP
Method: hGSTA4-4 activity was determined by monitoring (at 25 °C) the formation of the conjugate between CDNB and GSH at 340 nm (ε = 9600 L·mol^−1·cm^−1) for 120 s, as previously described [58]. One unit of enzyme activity is defined as the amount of enzyme that produces 1.0 μmol of product per minute under the assay conditions. The tested natural products and monocarbonyl curcumin derivatives were dissolved in DMSO (100 μΜ) and added to the assay mixture (the volume of DMSO was maintained at a 2% v/v final concentration). Initial velocities were determined in triplicates and were corrected for spontaneous reaction rates, when necessary. […] The IC50 values were determined from a graph of the remaining enzyme activity (%) against inhibitor concentration. The computer program GraphPad Prism version 8 (GraphPad Prism Software, Inc., Boston, MA, USA) was used for producing kinetic graphs and determining apparent kinetic parameters/constants and IC50 values.

U-87 MG cells [1] = conditions: cited from earlier work
U-251 MG cells [2] = experiment: TMZ sensitization experiment, MTT assay, U-251 MG; format: cell-based, human
Method: Cell cultures were maintained in flasks and grown at 37 °C in a humidified atmosphere of 5% CO2. […] Cells were seeded in 96-well plates (8 × 10^3 cells/well in 100 μL culture medium) and grown overnight at 37 °C in a 5% CO2 incubator. Exponentially growing cells were incubated for 48 h with various concentrations ranging between 10^−3 and 10^−8 M of each compound. The final DMSO concentration never exceeded 0.2%. The medium was then removed and replaced with 100 μL MTT solution (1 mg/mL). After 4 h incubation, the solution was aspirated, formazan crystals were solubilized in 100 μL DMSO, and the absorbance was recorded at 540 nm (Tecan well plate reader). The same procedure was followed for the TMZ sensitization experiments. […] Data were analyzed using the GraphPad Prism 5.0 software.

U-87 MG cells [3] = experiment: In vitro cytotoxicity, MTT assay, U-87 MG; format: cell-based, human; conditions: 48 h
Method: (§1) U-251 and U-87 MG cells were grown in Dulbecco’s modified Eagle’s growth medium (pH 7.4) supplemented with 10% FBS, 100 U/mL penicillin, 2 mM glutamine, and 100 μg/mL streptomycin. Cell cultures were maintained in flasks and grown at 37 °C in a humidified atmosphere of 5% CO2. Subconfluent cells were detached using 0.05% (w/v) trypsin−0.25% (w/v) ethylenediaminetetraacetic acid solution at a subcultivation ratio of 1:2 to 1:5. […] Cells were seeded in 96-well plates (8 × 10^3 cells/well in 100 μL culture medium) and grown overnight at 37 °C in a 5% CO2 incubator. Exponentially growing cells were incubated for 48 h with various concentrations ranging between 10^−3 and 10^−8 M of each compound. The final DMSO concentration never exceeded 0.2%. The medium was then removed and replaced with 100 μL MTT solution (1 mg/mL). After 4 h incubation, the solution was aspirated, formazan crystals were solubilized in 100 μL DMSO, and the absorbance was recorded at 540 nm (Tecan well plate reader). The same procedure was followed for the TMZ sensitization experiments. […] Data were analyzed using the GraphPad Prism 5.0 software.

[4] = In vitro cytotoxicity, MTT assay, U-87 MG; format: cell-based, human; conditions: human, U-87 MG cells, pH 7.4, U-87 MG cells
Method: as §1

[5] = In vitro cytotoxicity, MTT assay, U-251 MG; format: cell-based, human; conditions: human, U-251 MG cells, pH 7.4, U-251 MG cells
Method: as §1

U-251 MG cells [6] = experiment: In vitro cytotoxicity, MTT assay, U-251 MG; format: cell-based, human; conditions: 48 h
Method: as §1

hGSTP1-1 = biological target: hGSTP1-1; set-up: method as in PMID 36670925; conditions: cited from earlier work; for Ki: read-out: inhibition constant Ki

Structure (SMILES)	Enzyme Inhibition (%) (hGSTA4-4)	inhibition at 100 µM (hGSTA4-4)	other results
O=C1c2c(O)cc(O)cc2O[C@H](c2ccc(O)c(O)c2)[C@H]1O [Taxifolin hydrate]	40.37%	40%	
Oc1ccc(/C=C/c2cc(O)cc(O)c2)cc1 [Resveratrol]	8.87%	8.9%	
O=C(O)/C=C/c1ccc(O)cc1 [Coumaric Acid]		27.3%	
O=C(O)c1cc(O)c(O)c(O)c1 [Gallic acid]		20.8%	
COc1cc(/C=C/C(=O)CC(=O)/C=C/c2ccc(O)c(OC)c2)ccc1O [Curcumin]		80.9%	
Cn1nnc2c(C(N)=O)ncn2c1=O [TMZ, temozolomide]			IC50 (U-87 MG cells [1]; 48 h, interquartile range, read-out: IQR of IC50): 92 to 590 µM; IC50 (U-87 MG cells [1]; 48 h, read-out: median IC50): 223 µM; cell survival (U-251 MG cells [2]; 48 h, TMZ alone at 150 μM): > 85%
O=C(/C=C/c1ccc(O)c(O)c1)/C=C/c1ccc(O)c(O)c1 [DM148]		4.6%	cell survival (U-251 MG cells [2]; 48 h, compound alone at 10 μM): > 85%; change of cell survival in combination with TMZ (U-251 MG cells [2]; compound 10 μM + TMZ 150 μM, added together or 3 or 6 h pre-incubation, 48 h): did not result in any dramatic changes; IC50 (U-87 MG cells [3]): 91.1 ± 5.64 µM; IC50 at 48 h [4]: 91.1 µM; IC50 at 48 h [5]: 89.2 µM; IC50 (U-251 MG cells [6]): 89.2 ± 3.41 µM
COc1cc(/C=C/C(=O)/C=C/c2ccc(O)c(OC)c2)ccc1O [DM101]	94.1%	> 90%	IC50 (hGSTA4-4): 12.7 ± 1.1 µM
O=c1oc2c(O)c(O)cc3c(=O)oc4c(O)c(O)cc1c4c23 [Ellagic acid, Ellagic Acid]	95.1%	95%	IC50 (U-87 MG cells [1]; 48 h treatment, read-out: IC50 (cytotoxicity)): 91.2 µM; IC50 (hGSTA4-4): 0.44 ± 0.01 µM
O=c1c(O)c(-c2ccc(O)c(O)c2)oc2cc(O)cc(O)c12 [Quercetin]		84.7%	
O=C(O[C@@H]1Cc2c(O)cc(O)cc2O[C@@H]1c1cc(O)c(O)c(O)c1)c1cc(O)c(O)c(O)c1 [Epigallocatechin gallate]		86.4%	
CC1=C(C=O)C(C)(C)CC=C1 [Safranal]		21.8%	
O=C1C[C@@H](c2ccc(O)cc2)Oc2cc(O)cc(O)c21 [Naringenin]		28.5%	
OC[C@H]1O[C@@H](Oc2cc(O)cc(/C=C/c3ccc(O)cc3)c2)[C@H](O)[C@@H](O)[C@@H]1O [Polydatin]		32.3%	
COc1cc2c(c(OC)c1OC)-c1ccc(OC)c(=O)cc1[C@@H](NC(C)=O)CC2 [Colchicine]	17.1%	17%	
O=C1/C(=C/c2ccc(O)c(O)c2)CCC/C1=C\c1ccc(O)c(O)c1 [DM151]			cell survival in combination with TMZ (U-251 MG cells [2]; 3 h pretreatment with compound 10 μM, then TMZ 150 μM 48 h): 45%; cell survival in combination with TMZ (U-251 MG cells [2]; 6 h pretreatment with compound 10 μM, then TMZ 150 μM 48 h): approximately 35%; cell survival (U-251 MG cells [2]; 48 h, compound alone at 10 μM): > 85%; cell survival in combination with TMZ (U-251 MG cells [2]; compound 10 μM + TMZ 150 μM added together, 48 h): 55%; Ki (hGSTP1-1; hGSTP1-1, CDNB substrate): 9.55 µM; type of inhibition (hGSTP1-1; hGSTP1-1, both GSH and CDNB substrates): purely non-competitive; Ki (hGSTP1-1; hGSTP1-1, variable substrate GSH): 5.79 µM; IC50 (U-87 MG cells [3]): 18.9 ± 5.81 µM; IC50 at 48 h [4]: 18.9 µM; IC50 at 48 h [5]: 25.5 µM; IC50 (U-251 MG cells [6]): 25.6 ± 4.83 µM

The next lines start with results.

Enzyme Inhibition (%) (hGSTA4-4)	inhibition at 100 µM (hGSTA4-4)	Structure (SMILES)	other results
	73.9%	O=C(/C=C/c1ccc(F)cc1)/C=C/c1ccc(F)cc1 [DM109]	
	55.7%	COc1ccc(/C=C2\CCC/C(=C\c3ccc(OC)c(OC)c3)C2=O)cc1OC [DM57]	
	64.9%	COc1ccc(/C=C2\CCC/C(=C\c3ccc(OC)cc3)C2=O)cc1 [DM46]	
	54.8%	COc1ccc(/C=C/C(=O)/C=C/c2ccc(OC)c(OC)c2)cc1OC [DM95]	
81.8%	> 90%	O=C(/C=C/c1ccc(O)cc1)/C=C/c1ccc(O)cc1 [DM96]	
	74.9%	O=C1/C(=C/c2ccc(F)cc2)CCC/C1=C\c1ccc(F)cc1 [DM62]	
95.1%	> 90%	COc1cc(/C=C2\CCC/C(=C\c3ccc(O)c(OC)c3)C2=O)ccc1O [DM100]	IC50 (hGSTA4-4): 16.9 ± 0.4 µM

— publication PMC10974579, “A Monocarbonyl Curcuminoid Derivative Inhibits the Activity of Human Glutathione Transferase A4-4 and Chemosensitizes Glioblastoma Cells to Temozolomide” (Pharmaceuticals, 2024)
